Results: PubChem BioAssay AID489040 (Sanford-Burnham Center for Chemical Genomics, 2010)
The source made the active and inactive calls.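 The calls were made as follows: active = mean half-maximal activating concentration from the dose-response fit at or below a set limit; inactive = the rest.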

Target: CHO-XBP1 luciferase reporter, IRE1-XBP1 UPR activation
Assay: XBP1 luciferase reporter activation – CHO-XBP1 cells, luminescence, counter-screen for apoptotic UPR arm activators, dose response (AID 489040);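 also: reporter read after six hours of compound exposure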

SMILES	EC50
C=CCn1nc([N+](=O)[O-])nc1Sc1cccc2cccnc12	> 80 µM (inactive)
Cc1cc(C(=O)c2ccc(C(C)(C)C)cc2)c(NC(=O)CCl)s1	> 80 µM (inactive)
COc1cc(C(=O)Oc2c(CN3CCOCC3)cc(Cl)c3cccnc23)cc(OC)c1OC	> 80 µM (inactive)
Cc1cc(-n2c(C)cc(C(=O)CCl)c2C)no1	> 80 µM (inactive)
O=C(Nc1nc(-c2ccccn2)cs1)c1ccc(Cl)s1	inactive
Oc1ccc2ccccc2c1N=Nc1ccccn1	> 80 µM (inactive)
Cc1cc(C)c(C(CC(=O)c2cccs2)C(C#N)C#N)c(C)c1 (centres undefined)	> 80 µM (inactive)
O=C(c1ccc(Br)cc1)C(CN1CCOCC1)c1ccccc1 (centres undefined)	> 80 µM (inactive)
CCOc1ccc(-n2c(C)cc(C(=O)CCl)c2C)cc1	5.83 µM
CC(=O)c1ccc(NC(=O)COC(=O)c2ccccc2N=Nc2ccc(N(C)C)cc2)cc1	4.12 µM
Oc1c(C(c2ccccn2)N2CCC(Cc3ccccc3)CC2)cc(Cl)c2cccnc12 (centres undefined)	> 80 µM (inactive)
Cn1c2ccccc2c2cc(/C=N/NC(=O)c3cc(O)ccc3O)ccc21	> 80 µM (inactive)
CCc1ccc2nc(N(CCCN(C)C)C(=O)c3ccc(S(=O)(=O)N4CCc5ccccc5C4)cc3)sc2c1	> 80 µM (inactive)
COc1ccc(/C=C/C(=O)Oc2ccc(C)cc2)cc1	> 80 µM (inactive)
Cc1ccc(Cc2cnc(NC(=O)/C(C#N)=C/c3ccc(-c4cccc([N+](=O)[O-])c4)o3)s2)cc1	9.32 µM
O=C(Nc1nc2ccc(F)cc2s1)c1ccccn1	> 80 µM (inactive)
CCOC(=O)c1c(NC(C)=O)sc2c1CCC(C=O)=C2Sc1ccccc1	> 80 µM (inactive)
Oc1c(Cl)cc(CN2CCCCC2)c2cccnc12	> 80 µM (inactive)
CC1(C)CCSC(/C=C/c2ccccc2)=N1	> 80 µM (inactive)
O=C1/C(=C/c2ccc(N3CCOCC3)o2)SC(=Nc2ccccc2)N1CCc1c[nH]c2ccccc12	> 80 µM (inactive)
COc1cc(SC#N)ccc1N=Cc1c(C)[nH]n(-c2ccc(Cl)cc2)c1=O	15.9 µM
O=C(Oc1oc(-c2ccco2)nc1C=Nc1ccc(Cl)cc1)c1ccco1	> 80 µM (inactive)
Cc1coc2c1C(=O)C(=O)c1c-2ccc2c(C)cccc12	> 80 µM (inactive)
Cc1c(C(=O)c2no[n+]([O-])c2C(=O)c2cnn(C)c2C)cnn1C	> 80 µM (inactive)
Oc1c(CN2CCN(c3ccc(F)cc3)CC2)cc(Cl)c2cccnc12	> 80 µM (inactive)

SMILES	EC50
Oc1[nH]c2ccccc2c1N=NC(=S)N1CCOCC1	inactive
C/C(=N\NC(=O)c1ccc(Cl)c(Cl)c1)c1ccccn1	> 80 µM (inactive)
C/C(CCC12CC3CC(CC(C3)C1)C2)=N\NC(N)=S	> 80 µM (inactive)
COc1ccc(CC2=CC(=O)c3ccccc3C2=O)cc1	> 80 µM (inactive)
O=C(C=C=Nc1ccccc1)C(=O)N=C=Cc1ccccc1	> 80 µM (inactive)
Cn1c(=O)c2c(SCC(=O)Nc3ccccc3F)nc(-c3ccccc3F)nc2n(C)c1=O	10.9 µM
COc1ccc2c(c1OC)C(=O)OC2Nc1nc(-c2ccccc2)cs1 (centres undefined)	> 80 µM (inactive)
Cc1cc(C(=O)CCl)c(C)n1CCc1ccc(Cl)cc1	> 80 µM (inactive)
O=C(Cn1ncc(Cl)c(Cl)c1=O)c1ccc2c(c1)OCCO2	> 80 µM (inactive)
C/C(=N\NC(=O)c1cccc(Br)c1)c1ccccn1	> 80 µM (inactive)
Cc1ccc(N2C(=O)NC(=O)/C(=C/c3cnn(-c4ccc(C)cc4)c3)C2=O)cc1	> 80 µM (inactive)
CN(c1ccccc1)S(=O)(=O)c1cccc(C(=O)NCCc2ccc(O)c(O)c2)c1	9.81 µM
Cc1cc(C(=O)CCl)c(C)n1-c1cccc([N+](=O)[O-])c1	> 80 µM (inactive)
O=C(CCC(=O)Nc1ccc(Cl)cc1Cl)N/N=C/c1ccc([N+](=O)[O-])o1	> 80 µM (inactive)
CC1CCN(Cc2c(C(=O)N/N=C/c3ccc(C(C)(C)C)cc3)nnn2-c2nonc2N)CC1	> 80 µM (inactive)
COC(=O)C1=C(C)N(c2ccc(C)c(C)c2)/C(=C/c2cccs2)C1=O	> 80 µM (inactive)
COc1ccc(-c2ccc(-c3nc4c(c(=O)[nH]c(=O)n4Cc4ccccc4)n3C)o2)c([N+](=O)[O-])c1	> 80 µM (inactive)
Nc1c(C(=O)Nc2ccc(S(=O)(=O)N3CCCC3)cc2)sc2nc3ccc(OC(F)(F)F)cc3cc12	> 80 µM (inactive)
CCOc1ccc2c(c1)C(=NNC(=O)c1ccncc1)c1cc(OCC)ccc1-2	> 80 µM (inactive)
CCc1ccc(-n2c(SCC(=O)c3ccc4c(c3)NC(=O)CO4)nc3ccccc3c2=O)cc1	10.5 µM
C=C1C(=O)C=C[C@]2(C)C[C@@H]3OC(=O)[C@](C)(O)[C@H]3C[C@@H]12	> 80 µM (inactive)
CCCN1Cc2cccc(C(=O)Nc3ccc(-c4nc5ccccc5[nH]4)cc3)c2C1=O	> 80 µM (inactive)
O=[N+]([O-])c1ccc(Sc2cccc3cccnc23)c([N+](=O)[O-])c1	> 80 µM (inactive)
O=C(/C=C/c1ccc(O)c(O)c1)c1ccccc1O	> 80 µM (inactive)
COc1ccccc1N=Cc1c(O)c2ccccc2oc1=O	8.05 µM

SMILES	EC50
CN1/C(=C\C(=O)COC(=O)c2ccc(O)c(O)c2)C(C)(C)c2ccccc21	9.91 µM
Cn1cc(/C=C2\SC(=O)NC2=S)c2ccccc21	inactive
S=C(Nc1ccccn1)c1ccccn1	> 80 µM (inactive)
O=C(N/N=C/c1ccccn1)c1cc(-c2ccccc2)nc2ccccc12	> 80 µM (inactive)
O=C(N/N=C/c1ccccn1)c1cc([N+](=O)[O-])cc([N+](=O)[O-])c1	> 80 µM (inactive)
Cc1c(C#N)c(NC(=O)CCl)n(Cc2ccc(F)cc2)c1C	> 80 µM (inactive)
Oc1c(C(c2ccccc2Cl)N2CCCC2)ccc2cccnc12 (centres undefined)	> 80 µM (inactive)
COc1ccc(N2C(=O)/C(=C/C=C/c3ccccc3[N+](=O)[O-])C(=O)NC2=S)cc1	> 80 µM (inactive)
O=C1NC(=O)N(Cc2ccccc2)C(=O)/C1=C\C=C\c1ccco1	> 80 µM (inactive)
CCOC(=O)c1c(C)oc2c1c(C(c1cccnc1)N1CCOCC1)c(O)c1ccccc12 (centres undefined)	> 80 µM (inactive)
CCOC(=O)c1cnc(-n2nc(C)cc2C)nc1Nc1ccc(N(C)C)cc1	> 80 µM (inactive)
C[C@@H](NC(=O)c1coc(=O)c(Br)c1)c1ccccc1	> 80 µM (inactive)
CCCCCCCCCn1c2c(c(=N)c3c1CCC3)CCC2	> 80 µM (inactive)
O=C(N/N=C/c1ccccn1)c1cc(-c2ccc(Cl)cc2)nc2ccccc12	> 80 µM (inactive)
Cc1noc2ncnc(Sc3ccc(Br)cc3)c12	> 80 µM (inactive)
Cc1cc(N2CCN(c3ccc([N+](=O)[O-])c4cccnc34)CC2)c2ccccc2n1	> 80 µM (inactive)
Oc1ccc(/C=N/N(c2ccccc2)c2ccccc2)cc1O	inactive
COc1ccc(C(=O)C(CN2CCCC2)c2ccccc2)cc1 (centres undefined)	> 80 µM (inactive)
CCOc1cc(/C=C2\CN(CC)C/C(=C\c3ccc(O)c(OCC)c3)C2=O)ccc1O	> 80 µM (inactive)
Cc1cc(C(=O)c2ccc(Cl)cc2)c(NC(=O)CCl)s1	> 80 µM (inactive)
COc1nc(N)nc(NC(=O)c2cccs2)c1N=O	> 80 µM (inactive)
O=C(NCCc1ccc(F)cc1)c1coc(=O)c(Br)c1	> 80 µM (inactive)
S=C(Nc1ccccc1)Nc1nccs1	> 80 µM (inactive)
CSc1nnc(NC(=O)c2nc(S(=O)(=O)Cc3cccc(C)c3)ncc2Cl)s1	> 80 µM (inactive)
COc1ccc(/C=C2\CN(Cc3ccccc3)C/C(=C\c3ccc(OC)c(O)c3)C2=O)cc1O	> 80 µM (inactive)

SMILES	EC50
CC(=O)/C(=N\Nc1ccc(Cl)cc1Cl)Sc1cccc2cccnc12	> 80 µM (inactive)
CCOC(=O)C1CCN(Cc2ccc(O)c3ncccc23)CC1	> 80 µM (inactive)
O=C1NN(c2cccc(Br)c2)C(=O)/C1=C/c1cccs1	8.89 µM
Cc1cc(C(=O)CCl)c(C)n1-c1cccc(S(=O)(=O)N2CCOCC2)c1	> 80 µM (inactive)
C=CCNC(=S)N/N=C(\C)c1ccccn1	> 80 µM (inactive)
O=C(/C=C/Sc1ccccc1)c1ccccc1	> 80 µM (inactive)
COc1ccccc1C(=O)NC(=S)NNC(=O)c1sc2ccccc2c1Cl	inactive
COc1ccc(/C=C/c2nc3cc(-c4ccccc4)ccc3o2)cc1O	> 80 µM (inactive)
O=C1C(Cl)=C(NC(=O)c2ccccc2)C(=O)C(Cl)=C1NC(=O)c1ccccc1	> 80 µM (inactive)
Cc1ccc(-c2nc(SCC(=O)Nc3cc(C)on3)c3c(=O)n(C)c(=O)n(C)c3n2)cc1	inactive
Oc1c(C(Nc2ccccn2)c2ccccn2)ccc2cccnc12 (centres undefined)	> 80 µM (inactive)
Cc1c(C#N)c(NC(=O)CCl)n(Cc2ccccc2)c1C	> 80 µM (inactive)
COc1cc([C@H]2c3[nH]c4ccccc4c3C[C@H]3C(=O)N4[C@@H](c5cc(OC)c(OC)c(OC)c5)c5[nH]c6ccccc6c5C[C@H]4C(=O)N23)cc(OC)c1OC	14.1 µM
COc1ccc(N2CCN(Cc3cc(=O)oc4cc(-c5ccccc5)c(O)cc34)CC2)cc1	> 80 µM (inactive)
O=C(COC(=O)c1ccccc1C(=O)c1ccc(Cl)c([N+](=O)[O-])c1)NC1CCCCCC1	> 80 µM (inactive)
C/C(=N\NC(=O)c1ccc(F)cc1)c1ccccn1	> 80 µM (inactive)
Oc1ccc(-c2nc(-c3ccc(O)c(O)c3)cs2)cc1	> 80 µM (inactive)
COCCN1CSC(=S)N(Cc2ccco2)C1	> 80 µM (inactive)
Cn1nnnc1Sc1ncnc2scc(-c3cc4ccccc4o3)c12	> 80 µM (inactive)
O=C1NC(=O)C(=Cc2ccc(-c3ccc(Cl)cc3)o2)C(=O)N1	> 80 µM (inactive)
O=C(CSC(=S)N1CCCC1)c1cc(Br)cc(Br)c1O	> 80 µM (inactive)
NC(N)=N/N=C/c1ccc(N(c2ccccc2)c2ccccc2)cc1	> 80 µM (inactive)
CCOC(=O)c1ccc(N=C2C(=S)N(c3ccc(C(=O)OCC)cc3)C(=N)N2/N=C/c2ccccc2)cc1	> 80 µM (inactive)
O=C(/C=C\c1ccccc1OC(=O)c1ccccc1F)c1cc2ccccc2o1	13.7 µM
